According to patent US20240083897A1, “GCN2 MODULATING COMPOUNDS AND USES THEREOF” (HiberCell, Inc., priority 2021, published 2024):

Target: GCN2 (Homo sapiens (Human), UniProt Q9P2K8)
Assay: TR-FRET biochemical assay for inhibition of GCN2
Conditions: not given

Sequence of GCN2 (Q9P2K8 whole entry): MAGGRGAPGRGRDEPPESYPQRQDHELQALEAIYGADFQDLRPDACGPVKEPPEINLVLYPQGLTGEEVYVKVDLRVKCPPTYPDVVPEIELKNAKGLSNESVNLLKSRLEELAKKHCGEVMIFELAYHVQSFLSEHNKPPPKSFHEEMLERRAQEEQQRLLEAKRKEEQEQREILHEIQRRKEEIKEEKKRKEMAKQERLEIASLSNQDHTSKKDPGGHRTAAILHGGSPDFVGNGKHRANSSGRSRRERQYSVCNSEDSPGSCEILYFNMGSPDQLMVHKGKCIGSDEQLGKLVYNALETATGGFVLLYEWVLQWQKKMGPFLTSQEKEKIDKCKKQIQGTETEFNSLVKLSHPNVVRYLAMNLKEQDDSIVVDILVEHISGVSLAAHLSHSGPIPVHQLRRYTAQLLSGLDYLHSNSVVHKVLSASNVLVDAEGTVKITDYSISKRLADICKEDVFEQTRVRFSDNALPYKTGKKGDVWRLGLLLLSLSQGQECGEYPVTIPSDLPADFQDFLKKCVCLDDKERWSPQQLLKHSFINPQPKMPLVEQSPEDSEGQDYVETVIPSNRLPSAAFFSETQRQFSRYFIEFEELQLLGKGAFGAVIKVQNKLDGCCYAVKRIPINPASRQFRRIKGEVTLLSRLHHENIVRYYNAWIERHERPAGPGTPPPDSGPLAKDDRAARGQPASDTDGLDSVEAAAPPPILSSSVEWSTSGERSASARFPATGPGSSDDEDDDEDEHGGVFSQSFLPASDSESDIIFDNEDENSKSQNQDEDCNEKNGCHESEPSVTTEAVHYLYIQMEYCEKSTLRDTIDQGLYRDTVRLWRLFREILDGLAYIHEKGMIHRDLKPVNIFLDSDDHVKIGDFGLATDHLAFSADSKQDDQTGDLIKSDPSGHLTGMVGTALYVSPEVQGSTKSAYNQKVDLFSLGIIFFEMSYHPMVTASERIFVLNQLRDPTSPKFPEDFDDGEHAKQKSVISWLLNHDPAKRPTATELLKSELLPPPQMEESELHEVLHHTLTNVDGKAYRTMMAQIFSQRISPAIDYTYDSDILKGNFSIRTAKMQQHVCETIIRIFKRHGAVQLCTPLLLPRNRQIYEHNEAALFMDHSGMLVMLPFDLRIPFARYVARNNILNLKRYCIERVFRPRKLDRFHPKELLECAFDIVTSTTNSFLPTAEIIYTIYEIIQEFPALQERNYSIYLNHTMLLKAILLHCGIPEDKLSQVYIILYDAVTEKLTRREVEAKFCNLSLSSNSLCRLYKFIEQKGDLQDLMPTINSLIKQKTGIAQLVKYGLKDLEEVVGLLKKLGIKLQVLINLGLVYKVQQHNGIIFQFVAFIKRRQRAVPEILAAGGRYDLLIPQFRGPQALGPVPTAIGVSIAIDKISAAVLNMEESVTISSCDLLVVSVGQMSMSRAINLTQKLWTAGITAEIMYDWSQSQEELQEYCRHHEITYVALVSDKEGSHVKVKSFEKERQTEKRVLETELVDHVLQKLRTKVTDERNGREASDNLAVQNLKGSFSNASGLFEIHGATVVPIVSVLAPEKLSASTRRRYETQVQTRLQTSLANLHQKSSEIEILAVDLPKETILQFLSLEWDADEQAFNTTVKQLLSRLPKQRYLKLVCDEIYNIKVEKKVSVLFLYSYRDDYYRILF

Row | SMILES | IC50
1 | CNC(=O)c1ncn2c1CN(C)[C@@H](c1c(F)ccc(NS(=O)(=O)c3cc(Cl)cnc3OC)c1F)C2 (single isomer, unassigned) [Compound 33-2] | 500 to 1000 nM
2 | CNC(=O)c1ncn2c1CCC(c1c(Cl)ccc(NS(=O)(=O)c3cc(F)cnc3OC)c1F)C2 (stereo in doubt) [Compound 155-2, (6S)-6-[6-chloro-2-fluoro-3-(5-fluoro-2-methoxypyridine-3-sulfonamido)phenyl]-N-methyl-5H,6H,7H,8H-imidazo[1,5-a]pyridine-1-carboxamide] | 50 to 500 nM
3 | CNC(=O)c1ncn2c(C)c(-c3c(F)ccc(NS(=O)(=O)c4cc(Cl)cnc4OC)c3F)ccc12 [Compound 11, 6-[3-(5-chloro-2-methoxypyridine-3-sulfonamido)-2,6-difluorophenyl]-N,5-dimethyl imidazo[1,5-a]pyridine-1-carboxamide] | 50 to 500 nM
4 | CNC(=O)c1ncn2cc(-c3c(F)ccc(NS(=O)(=O)c4cc(Cl)cnc4OC)c3F)c(OC)nc12 [Compound 17, 3-[3-(5-chloro-2-methoxypyridine-3-sulfonamido)-2,6-difluorophenyl]-2-methoxy-N-methylimidazo[1,5-a]pyrimidine-8-carboxamide] | 50 to 500 nM
5 | CNC(=O)c1ncn2cc(-c3c(F)ccc(NS(=O)(=O)c4cc(Cl)cnc4OC)c3F)c(=O)n(C)c12 [Compound 22, 3-[3-(5-chloro-2-methoxypyridine-3-sulfonamido)-2,6-difluorophenyl]-N,1-dimethyl-2-oxoimidazo[1,5-a]pyrimidine-8-carboxamide] | 50 to 500 nM
6 | CNC(=O)c1ncn2cc(-c3c(F)ccc(NS(=O)(=O)c4cc(C#N)cc(C(F)(F)F)c4)c3F)ccc12 [Compound 23, 6-[3-[3-cyano-5-(trifluoromethyl)benzenesulfonamido]-2,6-difluorophenyl]-N-methylimidazo[1,5-a]pyridine-1-carboxamide] | 50 to 500 nM
7 | CNC(=O)c1ncn2c1CC[C@H](c1c(F)ccc(NS(=O)(=O)c3cc(Cl)cnc3OC)c1F)C2 [Compound 27-1, (6R)-6-[3-(5-chloro-2-methoxypyridine-3-sulfonamido)-2,6-difluorophenyl]-N-methyl-5H,6H,7H,8H-imidazo[1,5-a]pyridine-1-carboxamide] | 50 to 500 nM
8 | CNC(=O)c1ncn2c1CC[C@@H](c1c(F)ccc(NS(=O)(=O)c3cc(Cl)cnc3OC)c1F)C2 [Compound 27-2, (6S)-6-[3-(5-chloro-2-methoxypyridine-3-sulfonamido)-2,6-difluorophenyl]-N-methyl-5H,6H,7H,8H-imidazo[1,5-a]pyridine-1-carboxamide] | 50 to 500 nM
9 | COc1ncc(Cl)cc1S(=O)(=O)Nc1ccc(F)c(-c2ccc3c(-c4nnc[nH]4)ncn3c2)c1F [Compound 29, 5-chloro-N-[2,4-difluoro-3-[1-(4H-1,2,4-triazol-3-yl)imidazo[1,5-a]pyridin-6-yl]phenyl]-2-methoxypyridine-3-sulfonamide] | < 50 nM

Same assay, conditions: GCN2 2 nM, 100 nM GFP-eIF2a, 150 μM ATP, TR-FRET

Row | SMILES | IC50
10 | CNC(=O)c1ncn2c1CN(C)[C@H](c1c(F)ccc(NS(=O)(=O)c3cc(Cl)cnc3OC)c1F)C2 (single isomer, unassigned) [Compound 33-1] | > 1000 nM
11 | Cc1ncc(Cl)cc1S(=O)(=O)Nc1ccc(F)c([C@H]2CCc3c(-c4ncc[nH]4)ncn3C2)c1F (single isomer, unassigned) [Compound 84-1] | < 50 nM
12 | Cc1ncc(Cl)cc1S(=O)(=O)Nc1ccc(F)c([C@@H]2CCc3c(-c4ncc[nH]4)ncn3C2)c1F (single isomer, unassigned) [Compound 84-2] | < 50 nM
13 | CNC(=O)c1ncn2c1CCC(c1c(Cl)ccc(NS(=O)(=O)c3cc(F)cnc3OC)c1F)C2 (stereo in doubt) [Compound 155-1, (6R)-6-[6-chloro-2-fluoro-3-(5-fluoro-2-methoxypyridine-3-sulfonamido)phenyl]-N-methyl-5H,6H,7H,8H-imidazo[1,5-a]pyridine-1-carboxamide] | < 50 nM
14 | CNC(=O)c1ncn2nc(-c3c(F)ccc(NS(=O)(=O)c4cc(Cl)cnc4C)c3F)ccc12 [Compound 5, 2-[3-(5-chloro-2-methylpyridine-3-sulfonamido)-2,6-difluorophenyl]-N-methylimidazo[1,5-b]pyridazine-5-carboxamide] | < 50 nM
15 | CNC(=O)c1ncn2cc(-c3c(F)ccc(NS(=O)(=O)c4cc(C#N)cnc4C)c3F)ccc12 [Compound 9, 6-[3-(5-cyano-2-methylpyridine-3-sulfonamido)-2,6-difluorophenyl]-N-methylimidazo[1,5-a]pyridine-1-carboxamide] | < 50 nM
16 | CNC(=O)c1ncn2cc(-c3c(F)ccc(NS(=O)(=O)c4cc(F)cc5c4CCC5O)c3F)ccc12 (centres unmarked) [Compound 10, 6-[2,6-difluoro-3-(6-fluoro-1-hydroxy-2,3-dihydro-1H-indene-4-sulfonamido)phenyl]-N-methylimidazo[1,5-a]pyridine-1-carboxamide] | < 50 nM
17 | CNC(=O)c1ncn2nc(-c3c(F)ccc(NS(=O)(=O)c4cc(F)cnc4C)c3F)ccc12 [Compound 12, 2-[2,6-difluoro-3-(5-fluoro-2-methylpyridine-3-sulfonamido)phenyl]-N-methylimidazo[1,5-b]pyridazine-5-carboxamide] | < 50 nM
18 | CNC(=O)c1ncn2cc(-c3c(F)ccc(NS(=O)(=O)c4cc(C(F)(F)F)cnc4OC)c3F)ccc12 [Compound 13, 6-[2,6-difluoro-3-[2-methoxy-5-(trifluoromethyl)pyridine-3-sulfonamido]phenyl]-N-methylimidazo[1,5-a]pyridine-1-carboxamide] | < 50 nM
19 | CNC(=O)c1ncn2c(OC)c(-c3c(F)ccc(NS(=O)(=O)c4cc(Cl)cnc4OC)c3F)ccc12 [Compound 15, 6-[3-(5-chloro-2-methoxypyridine-3-sulfonamido)-2,6-difluorophenyl]-5-methoxy-N-methylimidazo[1,5-a]pyridine-1-carboxamide] | > 1000 nM
20 | COc1ncc(F)cc1S(=O)(=O)Nc1ccc(F)c(-c2ccc3c(-c4ncc[nH]4)ncn3c2)c1F [Compound 18, N-[2,4-difluoro-3-[1-(1H-imidazol-2-yl)imidazo[1,5-a]pyridin-6-yl]phenyl]-5-fluoro-2-methoxypyridine-3-sulfonamide] | < 50 nM
21 | Cc1ncc(F)cc1S(=O)(=O)Nc1ccc(F)c(-c2ccc3c(-c4ncc[nH]4)ncn3c2)c1F [Compound 19, N-[2,4-difluoro-3-[1-(1H-imidazol-2-yl)imidazo[1,5-a]pyridin-6-yl]phenyl]-5-fluoro-2-methylpyridine-3-sulfonamide] | < 50 nM
22 | COc1ncc(C#N)cc1S(=O)(=O)Nc1ccc(F)c(-c2ccc3c(-c4ncc[nH]4)ncn3c2)c1F [Compound 20, 5-cyano-N-[2,4-difluoro-3-[1-(1H-imidazol-2-yl)imidazo[1,5-a]pyridin-6-yl]phenyl]-2-methoxypyridine-3-sulfonamide] | < 50 nM
23 | CNC(=O)c1ncc2c(F)c(-c3c(F)ccc(NS(=O)(=O)c4cc(Cl)cnc4OC)c3F)ccn12 [Compound 21, 7-[3-(5-chloro-2-methoxypyridine-3-sulfonamido)-2,6-difluorophenyl]-8-fluoro-N-methylimidazo[1,5-a]pyridine-3-carboxamide] | < 50 nM
24 | CNC(=O)c1ncn2c(NC)c(-c3c(F)ccc(NS(=O)(=O)c4cc(Cl)cnc4OC)c3F)ccc12 [Compound 24, 6-[3-(5-chloro-2-methoxypyridine-3-sulfonamido)-2,6-difluorophenyl]-N-methyl-5-(methylamino)imidazo[1,5-a]pyridine-1-carboxamide] | > 1000 nM
25 | Cc1ncc(Cl)cc1S(=O)(=O)Nc1ccc(F)c(-c2ccc3c(-c4ncc[nH]4)ncn3c2)c1F [Compound 25, 5-chloro-N-[2,4-difluoro-3-[1-(1H-imidazol-2-yl)imidazo[1,5-a]pyridin-6-yl]phenyl]-2-methylpyridine-3-sulfonamide] | < 50 nM
26 | COc1ncc(Cl)cc1S(=O)(=O)Nc1ncc(F)c(-c2ccc3c(-c4ncc[nH]4)ncn3c2)c1F [Compound 26, 5-chloro-N-[3,5-difluoro-4-[1-(1H-imidazol-2-yl)imidazo[1,5-a]pyridin-6-yl]pyridin-2-yl]-2-methoxypyridine-3-sulfonamide] | < 50 nM
27 | O=S(=O)(Nc1ccc(F)c(-c2ccc3c(-c4ncc[nH]4)ncn3c2)c1F)c1cc(F)cc2c1CCC2O (centres unmarked) [Compound 28, N-[2,4-difluoro-3-[1-(1H-imidazol-2-yl)imidazo[1,5-a]pyridin-6-yl]phenyl]-6-fluoro-1-hydroxy-2,3-dihydro-1H-indene-4-sulfonamide] | < 50 nM
28 | CNC(=O)c1ncc2cc(-c3c(F)ccc(NS(=O)(=O)c4cc(Cl)cnc4OC)c3F)ccn12 [Compound 30, 7-[3-(5-chloro-2-methoxypyridine-3-sulfonamido)-2,6-difluorophenyl]-N-methylimidazo[1,5-a]pyridine-3-carboxamide] | < 50 nM
29 | COc1ncc(Cl)cc1S(=O)(=O)Nc1ccc(F)c(-c2cn3cnc(-c4ncc[nH]4)c3cn2)c1F [Compound 31, 5-chloro-N-[2,4-difluoro-3-[1-(1H-imidazol-2-yl)imidazo[1,5-a]pyrazin-6-yl]phenyl]-2-methoxypyridine-3-sulfonamide] | < 50 nM
30 | COc1ncc(Cl)cc1S(=O)(=O)Nc1ccc(F)c(-c2ccc3c(-c4ccn[nH]4)ncn3c2)c1F [Compound 32, 5-chloro-N-[2,4-difluoro-3-[1-(2H-pyrazol-3-yl)imidazo[1,5-a]pyridin-6-yl]phenyl]-2-methoxypyridine-3-sulfonamide] | < 50 nM
31 | COc1ncc(Cl)cc1S(=O)(=O)Nc1ccc(F)c(-c2ccc3c(-c4cnn[nH]4)ncn3c2)c1F [Compound 34, 5-chloro-N-[2,4-difluoro-3-[1-(3H-1,2,3-triazol-4-yl)imidazo[1,5-a]pyridin-6-yl]phenyl]-2-methoxypyridine-3-sulfonamide] | < 50 nM
32 | COc1ncc(Cl)cc1S(=O)(=O)Nc1ccc(F)c(-c2ccn3c(-c4ncc[nH]4)ncc3c2)c1F [Compound 35, 5-chloro-N-[2,4-difluoro-3-[3-(1H-imidazol-2-yl)imidazo[1,5-a]pyridin-7-yl]phenyl]-2-methoxypyridine-3-sulfonamide] | < 50 nM
